In paper PMC9911168, “Cytotoxic and pro-apoptotic effects of botanical drugs derived from the indigenous cultivated medicinal plant Paris polyphylla var. yunnanensis” (Frontiers in Pharmacology, 2023):

Tests used:
Format in all cases: cell-based, human
[1] = tested on: SMMC-7721 cells; assay: Mitochondrial membrane potential (JC-10), SMMC-7721; conditions: SMMC-7721, 2 μM, 24 h
Description: (§1) The probe 5,6-dichloro-1,1′,3,3′- tetraethyl-imidacarbocyanine iodide (JC-10) was used as a measure of mitochondrial membrane potential ([Hirose et al., 1974]; [Chaudhari et al., 2008]). The effects of each of the six isolated saponins on mitochondrial membrane potential were determined using a JC-10 assay kit (×200, 10 μL/tube, five tubes), which was purchased from Beijing Solarbio Science & Technology Co., Ltd. (Beijing, China). Cells were cultured in a confocal dish with this method. After 12–24 h of inoculation and culture at 37°C, the purified saponins were added at the indicated concentrations. The cells were incubated at 37°C in a humidified atmosphere with 5% (v/v) CO2 for 24 h. The culture medium was removed, and the confocal dishes were washed twice with 1 mL PBS, followed by 0.5 mL incubation buffer containing 2.5 μL JC-10 (×200) at 37°C for 20 min in the dark. After incubation, the supernatant was removed, and the cells were washed twice with 1 mL JC-10 buffer and PBS. […] The wavelengths for excitation were 490 nm (green fluorescence) and 525 nm (red fluorescence). The wavelengths for emission were in the range of 495–565 nm (monomers for JC-10) and 550–620 nm (polymer for JC-10).

[2] = tested on: A549 cells; assay: Mitochondrial membrane potential (JC-10), A549; conditions: A549, 2 μM, 24 h
Description: as §1

[3] = tested on: HepG2 cells; assay: Mitochondrial membrane potential (JC-10), HepG2; conditions: HepG2, 2 μM, 24 h
Description: as §1

[4] = tested on: LO2; assay: MTS cell viability assay, normal liver cell LO2; conditions: Homo sapiens, L02, read-out: IC50 (±SD) LO2
Description: (§2) Three human liver cancer cell lines (SMMC-7721, HepG2, and SK-HEP-1) and the non-small-cell lung cancer (NSCLC) cell line A549 were obtained from ATCC (Manassas, VA, United States). Normal human cell lines (liver cell line LO2 and lung cell line BEAS-2B) were obtained from ATCC (Manassas, VA, United States). Cells were cultured in RMPI-1640 or DMEM medium (Biological Industries, Kibbutz Beit-Haemek, Israel) supplemented with 10% (v/v) fetal bovine serum (Biological Industries) at 37°C in a humidified atmosphere with 5% (v/v) CO2.
(§3) The effects of the extracts and isolated saponins on cell growth were evaluated by the MTS assay (3-(4,5-dimethylthiazol-2-yl)-5(3-carboxymethoxyphenyl)-2-(4-sulfopheny)-2H-tetrazolium; Promega, Madison, WI, United States) on human tumor cell lines ([Mosmann, 1983]; [Cory et al., 1991]; [Malich et al., 1997]). In a test experiment of cell inhibition, the cell inhibition effects of six crude extracts (100 μg/mL) and six isolated saponins (40 μM) were roughly measured to ascertain whether to measure the IC50 value by MTS assay.
(§4) Each well of a 96-well plate (Multiskan Fc, Therm) was seeded with 100 μL cells at a density of 3,000–5,000 cells per well, with the cell suspension containing 10% (v/v) fetal bovine serum (DMEM or RMPI1640, Biological Industries, Kibbutz Beit-Haemek, Israel). After 12–24 h of inoculation and culture at 37°C, the extracts or saponins were added at the indicated concentrations after being dissolved in dimethyl sulfoxide (DMSO, Biological Industries, Kibbutz Beit-Haemek, Israel) in a final volume of 200 μL per well, each in triplicate. The six crude extracts were added at concentrations of 100, 20, 4, 0.8, and 0.16 μg/mL; the six isolated saponins were added at concentrations of 10, 5, 2.5, 1.25, 0.625, and 0.3125 μM. After culture for 48 h at 37°C, 20 μL of MTS solution and 100 μL of DMEM were added to each well; three blank wells were set aside with 20 μL MTS solution and 100 μL DMEM. After an incubation for another 2–4 h, the absorbance at 492 nm was measured. Cisplatin and Paclitaxel (MeilunBio) were used as a positive control in each experiment. The cell growth curve was drawn with the concentration as the abscissa and the cell survival rate as the ordinate. The IC50 value of each saponin was calculated by the two-point method ([Reed and Muench, 1938]).

[5] = tested on: SMMC-7721 cells; assay: Cell cycle analysis (PI staining, flow cytometry), SMMC-7721; conditions: SMMC-7721, 24 h, 1 μM
Description: (§5) Cell cycle distribution was determined by propidium iodide (PI, BD, Pharmingen) staining ([Kong et al., 2016]; [Wei et al., 2021]). Briefly, three cancer cell lines were cultured in six-well plates at a density of 3 × 10^5 cells per well for 24 h before treatment with each of the six isolated saponins at the indicated concentrations for 24 h. The cells were collected, centrifuged, and washed twice with ice-cold PBS. Cells were fixed in 70% (v/v) ice-cold ethanol at 4°C overnight and washed again in PBS twice. The cells were incubated with 100 μL RNase A at 37°C for 30 min in the dark, after which 400 μL PI was added to the cells with RNase A in the dark at 4°C for 15 min. The cell cycle stage was analyzed by flow cytometry (BD, FACSCelesta, United States) with FLOWJO software (FlowJo, Ashland, OR, United States).

[6] = tested on: SK-HEP-1; assay: MTS cell viability assay, SK-HEP-1; conditions: Homo sapiens, SK-HEP1, 48 h, read-out: IC50 (±SD) SK-HEP-1
Description: as §3, §4

[7] = tested on: HepG2 cells; assay: Cell cycle analysis (PI staining, flow cytometry), HepG2; conditions: HepG2, 24 h, 1 μM
Description: as §5

[8] = tested on: SMMC-7721; assay: MTS cell viability assay, SMMC-7721; conditions: Homo sapiens, SMMC-7721, 48 h, read-out: IC50 (±SD) SMMC-7721
Description: as §3, §4

[9] = tested on: BEAS-2B; assay: MTS cell viability assay, normal lung cell BEAS-2B; conditions: Homo sapiens, BEAS-2B, read-out: IC50 (±SD) BEAS-2B
Description: as §2, §3, §4

[10] = tested on: HepG2; assay: MTS cell viability assay, HepG2; conditions: Homo sapiens, HepG2, 48 h, read-out: IC50 (±SD) HepG2
Description: as §3, §4

[11] = tested on: A549; assay: MTS cell viability assay, A549; conditions: Homo sapiens, A549, 48 h, read-out: IC50 (±SD) A549
Description: as §3, §4

[12] = tested on: A549 cells; assay: Cell cycle analysis (PI staining, flow cytometry), A549; conditions: A549, 24 h; saponins 1 and 5 at 0.5 μM, other four at 1 μM
Description: as §5

[13] = tested on: SMMC-7721 cells; assay: Apoptosis by annexin V-FITC/PI staining, SMMC-7721; conditions: SMMC-7721, saponins 5 μM, Figure 7
Description: Double staining with annexin V-fluorescein isothiocyanate (FITC) and PI was used to determine the effects of the six saponins on cell apoptosis by flow cytometry ([Homburg et al., 1995]; [Vermes et al., 1995]; [Casciola-Rosen et al., 1996]). The effects of the six isolated saponins on apoptosis were determined using an annexin V-FITC apoptosis kit (BD, Pharmingen); the chemotherapy drug doxorubicin (DOX, Beyotime Institute of Biotechnology, Shanghai, China) was used as the positive control. Cells were cultured in six-well plates at a density of 3 × 10^5 cells per well for 24 h before being treated with each of the six isolated saponins at the indicated concentrations for 24 h. The cells were collected, centrifuged, and washed twice with ice-cold phosphate-buffered saline (PBS). The cells were stained with annexin V-FITC and PI for 15 min in the dark at room temperature before analysis by flow cytometry (BD, FACSCelesta, America). Annexin V-FITC^+ and PI^+ (Q2) were considered late-stage apoptotic cells, while annexin V-FITC^+ and PI^− (Q3) cells were considered early-stage apoptotic cells. Annexin V-FITC^– and PI^+ (Q1) were necrotic or mechanically damaged cells, and annexin V-FITC^– and PI^− (Q4) cells were healthy living cells.

SMILES | JC-10 green fluorescence (drop in mitochondrial membrane potential) [1] | JC-10 green fluorescence (drop in mitochondrial membrane potential) [2] | JC-10 green fluorescence (drop in mitochondrial membrane potential) [3] | IC50 [4] | cell cycle phase with increased proportion of cells compared to DMSO control [5] | increase of proportion of cells in the G2/M phase compared to DMSO control [5] | IC50 [6] | increase of proportion of cells in the G2/M phase compared to DMSO control [7] | IC50 [8] | IC50 [9] | IC50 [10] | IC50 [11] | cell cycle phase with increased proportion of cells compared to DMSO control [12] | apoptosis rate (induction of apoptosis, in words) [13]
N#CC(C#N)=NNc1cccc(Cl)c1 [CCCP, carbonyl cyanide 3-chlorophenylhydrazone] | strong green fluorescence | strong green fluorescence | strong green fluorescence | – | – | – | – | – | – | – | – | – | – | –
CC1CCC2(OC1)OC1CC3C4CC=C5CC(OC6OC(CO)C(OC7OC(C)C(OC8OC(C)C(O)C(O)C8O)C(O)C7O)C(O)C6OC6OC(C)C(O)C(O)C6O)CCC5(C)C4CCC3(C)C1C2C [saponin 6, diosgenin-3-O-α-L-rhamnopyranosyl-(1→2)-[α-L-rhamnopyranosyl-(1→4)-α-L-rhamnopyranosyl-(1→4)]-β-D-glucopyranoside] | – | – | – | 370 ± 10 nM | cell cycle arrest at the G2/M phase | 27.10% | 1300 ± 60 nM | 25.8% | 450 ± 10 nM | 730 ± 30 nM | 2590 ± 30 nM | 240 ± 10 nM | G2/M phase | substantial induction of apoptosis
